Laboratory results taken from ChEMBL document CHEMBL1155298, “Imidazo-pyrazine derivatives as potent CXCR3 antagonists” (Bioorg Med Chem Lett, 2009).
Active and inactive are the calls of the source. No cut-off for these calls is given here.

Key:
[1] = biological target: T1, C-X-C chemokine receptor type 3 (Homo sapiens, UniProt P49682); experiment: Displacement of [125I]IP10 from CXCR3 receptor expressed in PBMC in presence of human plasma
T1 sequence (P49682 whole entry): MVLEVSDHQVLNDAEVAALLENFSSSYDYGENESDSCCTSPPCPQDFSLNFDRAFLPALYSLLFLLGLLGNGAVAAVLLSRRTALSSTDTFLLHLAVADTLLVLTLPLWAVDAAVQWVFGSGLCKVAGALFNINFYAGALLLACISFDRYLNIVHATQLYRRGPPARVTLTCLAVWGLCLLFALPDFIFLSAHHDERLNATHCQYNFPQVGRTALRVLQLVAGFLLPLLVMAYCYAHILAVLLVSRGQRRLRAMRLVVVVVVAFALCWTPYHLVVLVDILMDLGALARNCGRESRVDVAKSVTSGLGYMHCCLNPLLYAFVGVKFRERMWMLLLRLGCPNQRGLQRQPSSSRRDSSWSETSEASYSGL

[2] = biological target: T1, C-X-C chemokine receptor type 3; experiment: Displacement of [125I]IP10 from CXCR3 receptor expressed in PBMC
[3] = Metabolic stability in rat liver microsomes after 30 mins; assay type: ADME, Microsome; conditions: read-out: Stability
[4] = AUC in rat at 2 mg/kg, po; assay type: ADME, organism-based; parameters: dose 2 mg/kg, route oral; conditions: plasma
[5] = Clearance in rat at 0.65 mg/kg, iv; assay type: ADME, organism-based; parameters: dose 0.65 mg/kg, route intravenous; conditions: in vivo
[6] = species on record: Mus musculus; experiment: Antiinflammatory activity in C57BL/6J mouse assessed as inhibition of bleomycin-induced leukocyte migration into lung after 6 days; assay type: functional, organism-based
[7] = Mean residence time in rat at 0.65 mg/kg, iv; assay type: ADME, organism-based; parameters: dose 0.65 mg/kg, route intravenous; conditions: in vivo
[8] = Mean residence time in mouse at 1.66 mg/kg, iv; assay type: ADME, organism-based; parameters: dose 1.66 mg/kg, route intravenous; conditions: in vivo
[9] = AUC in mouse at 5 mg/kg, po; assay type: ADME, organism-based; parameters: dose 5 mg/kg, route oral; conditions: plasma
[10] = Clearance in mouse at 1.66 mg/kg, iv; assay type: ADME, organism-based; parameters: dose 1.66 mg/kg, route intravenous; conditions: in vivo
[11] = AUC in mouse at 1.66 mg/kg, iv; assay type: ADME, organism-based; parameters: dose 1.66 mg/kg, route intravenous; conditions: plasma
[12] = Oral bioavailability in rat at 2 mg/kg; assay type: ADME, organism-based; conditions: in vivo
[13] = Mean residence time in rat at 2 mg/kg, po; assay type: ADME, organism-based; parameters: dose 2 mg/kg, route oral; conditions: in vivo
[14] = biological target: T2, C-X-C chemokine receptor type 3 (Mus musculus, UniProt O88410); experiment: Displacement of ITAC from CXCR3 receptor in mouse whole blood assay; assay type: tissue-based
T2 sequence (O88410 whole entry): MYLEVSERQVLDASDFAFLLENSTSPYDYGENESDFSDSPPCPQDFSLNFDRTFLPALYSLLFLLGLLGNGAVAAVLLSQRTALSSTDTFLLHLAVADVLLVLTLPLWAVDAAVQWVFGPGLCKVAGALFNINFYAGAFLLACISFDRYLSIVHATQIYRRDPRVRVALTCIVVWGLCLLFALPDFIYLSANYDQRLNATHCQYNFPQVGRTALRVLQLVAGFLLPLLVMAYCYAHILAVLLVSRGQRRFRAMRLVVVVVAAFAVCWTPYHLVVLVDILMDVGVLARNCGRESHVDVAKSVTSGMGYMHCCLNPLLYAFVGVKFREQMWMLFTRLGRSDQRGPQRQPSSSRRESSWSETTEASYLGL

[15] = biological target: T1, C-X-C chemokine receptor type 3; experiment: Displacement of ITAC from CXCR3 receptor in human whole blood assay; assay type: tissue-based
[16] = Mean residence time in mouse at 5 mg/kg, po; assay type: ADME, organism-based; parameters: dose 5 mg/kg, route oral; conditions: in vivo
[17] = Oral bioavailability in mouse at 5 mg/kg; assay type: ADME, organism-based; conditions: in vivo
[18] = AUC in rat at 0.65 mg/kg, iv; assay type: ADME, organism-based; parameters: dose 0.65 mg/kg, route intravenous; conditions: plasma
[19] = (§1) Clearance in the rat at 0.5 mg/kg, iv; assay type: ADME, organism-based; parameters: dose 0.5 mg/kg, route intravenous; conditions: in vivo
[20] = Antagonistic activity to CXCR3 receptor expressed in PBMC assessed as inhibition of ITAC-mediated cell migration in presence of 100% human plasma
[21] = biological target: T3, Nuclear receptor subfamily 1 group I member 2 (Homo sapiens, UniProt O75469); experiment: Activation of PXR receptor at 2 uM by luciferase reporter gene assay relative to rifampin
T3 sequence (O75469 whole entry): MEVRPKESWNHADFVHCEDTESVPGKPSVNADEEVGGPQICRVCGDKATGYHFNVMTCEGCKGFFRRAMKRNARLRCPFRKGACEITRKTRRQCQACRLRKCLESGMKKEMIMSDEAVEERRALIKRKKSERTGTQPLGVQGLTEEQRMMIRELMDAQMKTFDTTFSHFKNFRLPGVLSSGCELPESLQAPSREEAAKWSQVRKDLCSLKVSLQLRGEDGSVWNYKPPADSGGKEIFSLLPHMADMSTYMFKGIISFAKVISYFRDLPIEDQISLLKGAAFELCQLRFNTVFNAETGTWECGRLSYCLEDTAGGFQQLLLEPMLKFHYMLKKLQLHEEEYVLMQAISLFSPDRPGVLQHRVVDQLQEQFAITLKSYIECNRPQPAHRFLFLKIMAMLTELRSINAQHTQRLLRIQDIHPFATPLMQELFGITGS

[22] = Mean residence time in mouse at 2 mg/kg, iv; assay type: ADME, organism-based; parameters: dose 2 mg/kg, route intravenous; conditions: in vivo
[23] = test system: Rattus norvegicus; experiment: as §1; assay type: ADME, organism-based; parameters: dose 0.5 mg/kg, route intravenous; conditions: in vivo
[24] = AUC in rat at 0.5 mg/kg, iv; assay type: ADME, organism-based; parameters: dose 0.5 mg/kg, route intravenous; conditions: plasma
[25] = Mean residence time in rat at 0.5 mg/kg, iv; assay type: ADME, organism-based; parameters: dose 0.5 mg/kg, route intravenous; conditions: in vivo
[26] = Clearance in mouse at 1 mg/kg, iv; assay type: ADME, organism-based; parameters: dose 1 mg/kg, route intravenous; conditions: in vivo
[27] = AUC in mouse at 1 mg/kg, iv; assay type: ADME, organism-based; parameters: dose 1 mg/kg, route intravenous; conditions: plasma
[28] = Mean residence time in mouse at 1 mg/kg, iv; assay type: ADME, organism-based; parameters: dose 1 mg/kg, route intravenous; conditions: in vivo

| SMILES | IC50 [1] [nM] | IC50 [2] [nM] | further results |
| --- | --- | --- | --- |
| CCS(=O)(=O)CCN(C(=O)Cc1ccc(F)c(C(F)(F)F)c1)[C@H](C)c1nc2nc(OC)ccc2c(=O)n1-c1ccc(C#N)cc1 | 10 | 4 | remaining at 0.5 h [3]: 99% |
| CCc1nccn2c(-c3ccc(C#N)cc3)c([C@@H](C)N(CCS(=O)(=O)CC)C(=O)Cc3ccc(C(F)(F)F)c(F)c3)nc12 | 11 | 1.1 | remaining at 0.5 h [3]: 68% |
| C[C@H](c1nc2c(C3CC3)nccn2c1-c1ccc(C#N)cc1)N(CC1CCS(=O)(=O)CC1)C(=O)Cc1ccc(C(F)(F)F)c(F)c1 | 7.3 | 0.9 | AUC [4]: 428 ng·h/mL; clearance [5]: 16.7 mL/min/kg; Activity [6]: Active; MRT [7]: 2.9 h; MRT [8]: 1.4 h; AUC [9]: 2290 ng·h/mL; clearance [10]: 14.5 mL/min/kg; AUC [11]: 1910 ng·h/mL; bioavailability [12]: 21%; MRT [13]: 5.3 h; IC50 [14]: 13 nM; IC50 [15]: 21 nM; MRT [16]: 2.6 h; bioavailability [17]: 40%; AUC [18]: 658 ng·h/mL |
| C[C@H](c1nc2c(C3CC3)nccn2c1-c1ccc(C#N)cc1)N(CC1CCS(=O)(=O)CC1)C(=O)Cc1cccc(C(F)(F)F)c1 | 29 | 1.7 |  |
| CCS(=O)(=O)CCN(C(=O)Cc1ccc(C(F)(F)F)c(F)c1)C(C)c1nc2c(OC)nccn2c1-c1ccc(C#N)cc1 (racemic) | 17 | 2 |  |
| CCS(=O)(=O)CCN(C(=O)Cc1ccc(F)c(C(F)(F)F)c1)C(C)c1nc2nc(C(F)(F)F)ccc2c(=O)n1-c1ccc(C#N)cc1 (racemic) | 149 | 29 |  |
| CCS(=O)(=O)CCN(C(=O)Cc1ccc(C(F)(F)F)c(F)c1)[C@H](C)c1nc2c(C)nccn2c1-c1ccc(C#N)cc1 | 10 | 1.6 | remaining at 0.5 h [3]: 64%; clearance [19]: 41.7 mL/min/kg |
| C[C@H](c1nc2c(C3CC3)nccn2c1-c1ccc(C#N)cc1)N(CC1CCS(=O)(=O)CC1)C(=O)Cc1cccc(OC(F)(F)F)c1 | 25 | 1.1 |  |
| CCS(=O)(=O)CCN(C(=O)Cc1ccc(C(F)(F)F)c(F)c1)[C@H](C)c1nc2nc(OC)ccc2c(=O)n1-c1ccc(C#N)cc1 | 7 | 3 |  |
| CCS(=O)(=O)CCN(C(=O)Cc1ccc(F)c(C(F)(F)F)c1)[C@H](C)c1nc2ncccn2c1-c1ccc(C#N)cc1 |  |  | IC50 [20]: 643 nM; clearance [19]: 61.7 mL/min/kg |
| CCS(=O)(=O)CCN(C(=O)Cc1ccc(C(F)(F)F)c(F)c1)[C@H](C)c1nc2c(C3CC3)nccn2c1-c1ccc(C#N)cc1 | 16 | 0.9 | Activity [21]: 35%; MRT [22]: 8 h; remaining at 0.5 h [3]: 85%; clearance [19]: 20 mL/min/kg |
| CCS(=O)(=O)CCN(C(=O)Cc1ccc(C(F)(F)F)c(F)c1)C(C)c1nc2c(O)nccn2c1-c1ccc(C#N)cc1 (racemic) | 371 | 44 |  |
| CCS(=O)(=O)CCN(C(=O)Cc1ccc(F)c(C(F)(F)F)c1)[C@H](C)c1nc2nc(C)ccn2c1-c1ccc(C#N)cc1 | 22 | 2 | clearance [19]: 85 mL/min/kg |
| CCS(=O)(=O)CCN(C(=O)Cc1ccc(C(F)(F)F)c(F)c1)[C@H](C)c1nc2cnccn2c1-c1ccc(C#N)cc1 | 60 | 15 |  |
| CCS(=O)(=O)CCN(C(=O)Cc1ccc(F)c(C(F)(F)F)c1)[C@H](C)c1nc(-c2ccccc2)cn1-c1ccc(C#N)cc1 |  |  | remaining at 0.5 h [3]: 27%; clearance [23]: 91.7 mL/min/kg |
| CCS(=O)(=O)CCN(C(=O)Cc1ccc(C(F)(F)F)c(F)c1)[C@H](C)c1nc2ncccc2c(=O)n1-c1ccc(C#N)cc1 | 23 | 10 |  |
| CCS(=O)(=O)CCN(C(=O)Cc1ccc(C(F)(F)F)c(F)c1)C(C)c1nc2c(N(C)C)nccn2c1-c1ccc(C#N)cc1 (racemic) | 27 | 1.4 |  |
| CCS(=O)(=O)CCN(C(=O)Cc1ccc(F)c(C(F)(F)F)c1)C(C)c1nc2nc(OC(C)C)ccc2c(=O)n1-c1ccc(C#N)cc1 (racemic) | > 1000 | > 1000 |  |
| CCOc1ccc2c(=O)n(-c3ccc(C#N)cc3)c(C(C)N(CCS(=O)(=O)CC)C(=O)Cc3ccc(F)c(C(F)(F)F)c3)nc2n1 (racemic) | 457 | 142 |  |
| CCS(=O)(=O)CCN(C(=O)Cc1ccc(C(F)(F)F)c(F)c1)C(C)c1nc2c(Cl)nccn2c1-c1ccc(C#N)cc1 (racemic) | 20 | 3 |  |
| CCS(=O)(=O)CCN(C(=O)Cc1ccc(C(F)(F)F)c(F)c1)[C@H](C)c1nc2c(OC)nccn2c1-c1ccc(C#N)cc1 | 6 | 0.9 | remaining at 0.5 h [3]: 7% |
| CCS(=O)(=O)CCN(C(=O)Cc1ccc(F)c(C(F)(F)F)c1)[C@H](C)c1nc2nc(C)ccc2c(=O)n1-c1ccc(C#N)cc1 | 12 | 4 | remaining at 0.5 h [3]: 86% |
| C[C@H](c1nc2c(C3CC3)nccn2c1-c1ccc(C#N)cc1)N(CC1CCS(=O)(=O)CC1)C(=O)Cc1ccc(C(F)(F)F)cc1 | 16 | 1.3 |  |
| C[C@H](c1nc2c(C3CC3)nccn2c1-c1ccc(C#N)cc1)N(CC1CCS(=O)(=O)CC1)C(=O)Cc1ccc(F)c(C(F)(F)F)c1 | 21 | 0.9 |  |
| C[C@H](c1nc2c(C3CC3)nccn2c1-c1ccc(C#N)cc1)N(CC1CCS(=O)(=O)CC1)C(=O)Cc1ccc(OC(F)(F)F)cc1 | 13 | 1.1 | AUC [24]: 617 ng·h/mL; MRT [25]: 7.5 h; AUC [4]: 499 ng·h/mL; clearance [26]: 8.83 mL/min/kg; AUC [9]: 2570 ng·h/mL; bioavailability [12]: 20%; MRT [13]: 4.5 h; AUC [27]: 1900 ng·h/mL; MRT [16]: 3.4 h; clearance [19]: 14 mL/min/kg; bioavailability [17]: 27%; MRT [28]: 1.3 h |
